molecular target: human PRMT5/MEP50 (Homo sapiens (Human), UniProt O14744); test: PRMT5 chemiluminescent assay; format: biochemical; settings: human PRMT5/MEP50 expressed in HEK293 cells; biotinylated histone peptides; Histone H4 monomethyl R3 antibody; chemiluminescent readout
Summary of the method: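 HEK293-expressed PRMT5/MEP50, diluted to 5 ng/µL in assay buffer, reacted 60 min with rotation on plate-bound biotinylated histone peptides. Product was detected with anti-histone H4 R3 monomethyl antibody (60 min), then HRP secondary (30 min) and chemiluminescent substrate. IC50 values came from the chemiluminescence signal.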

Chain of human PRMT5/MEP50 (O14744 whole entry): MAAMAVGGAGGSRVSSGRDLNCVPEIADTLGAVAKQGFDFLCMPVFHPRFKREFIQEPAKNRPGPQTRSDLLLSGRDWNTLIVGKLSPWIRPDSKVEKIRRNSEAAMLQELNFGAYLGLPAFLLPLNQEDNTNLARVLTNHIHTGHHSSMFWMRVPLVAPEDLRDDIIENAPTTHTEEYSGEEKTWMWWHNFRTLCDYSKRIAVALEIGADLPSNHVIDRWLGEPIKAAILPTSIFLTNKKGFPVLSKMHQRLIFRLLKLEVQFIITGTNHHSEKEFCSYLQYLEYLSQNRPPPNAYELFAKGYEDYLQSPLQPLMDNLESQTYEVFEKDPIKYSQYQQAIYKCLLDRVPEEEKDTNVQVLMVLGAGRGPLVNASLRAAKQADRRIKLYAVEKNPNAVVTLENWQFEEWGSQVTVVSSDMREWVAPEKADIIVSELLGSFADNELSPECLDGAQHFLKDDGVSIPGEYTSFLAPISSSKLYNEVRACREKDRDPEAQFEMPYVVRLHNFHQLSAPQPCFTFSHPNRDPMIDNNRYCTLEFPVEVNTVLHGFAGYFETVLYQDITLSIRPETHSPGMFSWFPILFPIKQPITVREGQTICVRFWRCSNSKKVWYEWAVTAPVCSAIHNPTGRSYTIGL
Chain of human PRMT5/MEP50 (Q9BQA1 whole entry partner): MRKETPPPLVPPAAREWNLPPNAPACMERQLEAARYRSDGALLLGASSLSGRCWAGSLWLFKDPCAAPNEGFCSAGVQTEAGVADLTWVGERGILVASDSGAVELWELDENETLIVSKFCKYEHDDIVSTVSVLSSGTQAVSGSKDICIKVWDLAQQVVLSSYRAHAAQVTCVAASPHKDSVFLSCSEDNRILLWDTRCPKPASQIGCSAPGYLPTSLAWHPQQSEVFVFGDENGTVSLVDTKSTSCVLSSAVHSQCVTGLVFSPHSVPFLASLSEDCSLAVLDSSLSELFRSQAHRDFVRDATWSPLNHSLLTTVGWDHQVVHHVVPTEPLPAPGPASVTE

Row | SMILES | IC50
1 | O=C(OCC(O)CN1CCc2ccsc2C1)N1CCCc2ccccc21 (stereo not shown) [Example 4Z, 3-(4,7-dihydrothieno[2,3-c]pyridin-6(5H)-yl)-2-hydroxypropyl 3,4-dihydroquinoline-1(2H)-carboxylate] | 448 nM
2 | O=C(NCCCN1CCc2ccccc2C1)N1CCC(c2ccccc2)C1 (stereo not shown) [Example 6A, N-(3-(3,4-dihydroisoquinolin-2(1H)-yl)propyl)-3-phenyl pyrrolidine-1-carboxamide] | 939 nM
3 | O=C(NCCCN1CCc2ccccc2C1)N1CCCC(c2ccccc2)C1 (stereo not shown) [Example 6B, N-(3-(3,4-dihydroisoquinolin-2(1H)-yl)propyl)-3-phenylpiperidine-1-carboxamide] | 1700 nM
4 | O=C(OCCCN1CCc2ccccc2C1)N1CCC(c2ccccc2)C1 (stereo not shown) [Example 7, 3-(3,4-dihydroisoquinolin-2(1H)-yl)propyl 3-phenylpyrrolidine-1-carboxylate] | 342 nM

Reference: US11485731B2, “Compounds and methods useful in the treatment of a PRMT5-mediated disorder” (ARGONAUT THERAPEUTICS LIMITED, priority 2017, dated 2022)
